From patent publication US10683278B2 (JINAN UNIVERSITY, priority 2015, dated 2020) come the findings set out here.

Structures are written as SMILES.

For this assay, the system named is 4T1 cells. Nature of the assay: In vivo metastasis of 4T1 xenografts. The settings on record: BALB/c mice, 4T1 subcutaneous, oral 30 and 90 mg/kg per day, 21 days. The procedure: BALB/c mice were selected and 4T1 cells (0.5×10^6/mouse) were inoculated subcutaneously on their right sides. Twenty-four days after inoculation, the mice were randomly divided into treatment and control groups (10 in each group). The mice in each group were orally administered for 21 days, and the drug dose in the treatment group was 30 mg/kg and 90 mg/kg of compound 2-lin per day, respectively. The mice were measured for body weight and tumor volume every two days. After the mice reached the end of administration, the liver tissues of mice were excised and collected, fixed with 10% formaldehyde solution, embedded in paraffin, sectioned, and stained with eosin. Microscopic examination of micrometastases in at least three fields of view was performed and the number of liver micrometastases was calculated.
The tumor volume is calculated by the formula of TV=W^2(L/2), wherein L is the length and W is the width.

As for `CCc1ccc2c(c1)c(=O)c(C(=O)Nc1ccc(Oc3ncnc4cc(OC)c(OC)cc34)c(F)c1)c(C)n2C` [TL4800191, N-(4-(6,7-dimethoxyquinazolin-4-yloxy)-3-fluorophenyl)-6-ethyl-1,2-dimethyl-4-oxo-1,4-dihydroquinoline-3-carboxamide], the “growth of in situ tumor” value is listed as “no obvious inhibitory effect”; the “number and size of liver metastasis” value is “inhibit the number and size of liver metastasis in a dose-dependent manner”.
